Assay results as given in patent US11224585B2, “Compositions containing omega-3 oil and uses thereof” (Maine Natural Health Company, Inc., priority 2010, dated 2022).

What was measured:
[1] = Absorption rate of ibuprofen in mice (tail vein samples); type: in vivo; conditions: mouse, blood (tail vein samples), 25 mg/kg
From the text: Additional experiments to test the absorption rate of the different omega-3 oil-containing pharmaceutical compositions described herein was illustrated in a mouse model.

[2] = tested on: stomach lesions in fasted mice; conditions: 10 mg/kg ketoprofen, one hour after administration, n = 8
[3] = tested on: carrageenin-induced ear swelling mouse model; test: Carrageenin-induced ear swelling mouse model of inflammation; conditions: mice, ketoprofen 2 mg/kg, ear volume vs control mice, eight mice per treatment

Compound: CC(C)Cc1ccc(C(C)C(=O)O)cc1 (stereo not drawn) [Ibuprofen in saline, ibuprofen]
- Cmax [1]: 10000 ng/mL

Compound: CC(C(=O)O)c1cccc(C(=O)c2ccccc2)c1 (stereo not drawn) [Ketoprofen in Saline, ketoprofen]
- Average Lesions Score/Stomach [2]: 33
- % of Inhibition of Inflammation [3]: 45%
